Consider 31 compounds from patent US10227357B2, “Compounds and methods for kinase modulation, and indications therefor” (Plexxikon Inc., priority 2012, dated 2019).

T1 sequence (P10721 26-976): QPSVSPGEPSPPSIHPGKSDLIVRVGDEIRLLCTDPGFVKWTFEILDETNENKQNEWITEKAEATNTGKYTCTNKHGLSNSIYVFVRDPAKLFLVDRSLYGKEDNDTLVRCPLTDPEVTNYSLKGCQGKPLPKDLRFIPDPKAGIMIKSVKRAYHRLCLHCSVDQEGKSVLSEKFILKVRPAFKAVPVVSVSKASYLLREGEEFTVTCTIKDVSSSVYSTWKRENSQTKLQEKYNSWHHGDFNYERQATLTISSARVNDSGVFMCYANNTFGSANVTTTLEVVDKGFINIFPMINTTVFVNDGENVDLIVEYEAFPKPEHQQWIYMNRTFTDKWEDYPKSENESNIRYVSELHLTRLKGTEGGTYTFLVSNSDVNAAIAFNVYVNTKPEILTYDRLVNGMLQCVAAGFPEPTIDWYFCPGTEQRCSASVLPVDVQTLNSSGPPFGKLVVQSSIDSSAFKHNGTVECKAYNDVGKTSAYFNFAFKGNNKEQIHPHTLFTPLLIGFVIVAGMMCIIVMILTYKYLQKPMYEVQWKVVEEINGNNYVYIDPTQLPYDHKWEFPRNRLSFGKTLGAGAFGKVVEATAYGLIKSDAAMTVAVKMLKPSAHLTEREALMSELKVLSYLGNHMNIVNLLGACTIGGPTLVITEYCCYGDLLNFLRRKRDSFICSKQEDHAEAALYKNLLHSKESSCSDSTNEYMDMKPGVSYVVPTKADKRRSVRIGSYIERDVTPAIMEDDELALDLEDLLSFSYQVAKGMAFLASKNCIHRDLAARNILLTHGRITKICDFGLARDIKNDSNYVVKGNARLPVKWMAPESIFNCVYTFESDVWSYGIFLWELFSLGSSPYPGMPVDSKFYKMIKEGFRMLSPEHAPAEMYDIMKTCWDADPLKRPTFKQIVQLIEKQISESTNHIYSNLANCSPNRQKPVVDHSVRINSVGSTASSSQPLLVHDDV

This experiment concerns the target T1, c-kit kinase (Homo sapiens, UniProt P10721).
T1 construct: The c-kit (or kinase domain thereof) is an active kinase in AlphaScreen; poly-Histidine tag (in-house protein only) (cleaved yes); host or cells: E. coli BL21(DE3)RIL, co-expressed with PTP1B
Nature of the experiment: c-Kit biochemical assay, AlphaScreen, 10 μM ATP. The settings on record: c-kit biochemical inhibitory activity; read-out: Biochemical activity (IC50 μM) Kit. The protocol:
IC50 values are determined with respect to inhibition of c-Kit kinase activity, where inhibition of phosphorylation of a peptide substrate is measured as a function of compound concentration. Compounds to be tested were dissolved in DMSO to a concentration of 20 mM. These were diluted 30 μl into 120 μl of DMSO (4 mM) and 1 μl was added to an assay plate. These were then serially diluted 1:3 (50 μl to 100 μl DMSO) for a total of 8 points. Plates were prepared such that each kinase reaction is 20 μl in 1× kinase buffer (50 mM HEPES, pH 7.2, 5 mM MgCl2, 5 mM MnCl2, 0.01% NP-40, 0.2% BSA), 5% DMSO and 10 μM ATP. […] C-kit kinase was at 0.1 ng per sample. After incubation of the kinase reaction for 1 hour at room temperature, 5 μl of donor beads (Streptavidin coated beads (Perkin Elmer Life Science) final concentration 1 μg/ml) in stop buffer (50 mM EDTA in 1× kinase buffer) was added, the sample was mixed and incubated for 20 minutes at room temperature before adding 5 μl of acceptor beads (PY20 coated beads (Perkin Elmer Life Science) final concentration 1 μg/ml) in stop buffer. The samples were incubated for 60 minutes at room temperature and the signal per well was read on AlphaQuest reader. […] The signal vs. compound concentration was used to determine the IC50.
Complementary DNA cloned from various human tissues were purchased from Invitrogen, and these were used as substrates in the PCR reactions. Specific custom synthetic oligonucleotide primers were designed to initiate the PCR product, and also to provide the appropriate restriction enzyme cleavage sites for ligation with the plasmids. The entire sequence encoding the enzyme was made through a gene synthesis procedure, using custom synthetic oligonucleotides covering the entire coding sequence (Invitrogen, see below).
The plasmid used for ligation with the kinase-encoding inserts was derivative of pET (Novagen) for expression using E. coli. The Kit kinase was engineered to include a Histidine tag for purification using metal affinity chromatography. The kinase-encoding plasmid was engineered as bicistronic mRNA to co-express a second protein that modifies the kinase protein during its expression in the host cell. Protein tyrosine phosphatase 1B (PTP), was co-expressed for dephosphorylation of the phospho-Tyrosines.
For protein expression, the plasmid containing the Kit gene was transformed into E. coli strains BL21(DE3)RIL and transformants selected for growth on LB agar plates containing appropriate antibiotics. Single colonies were grown overnight at 37° C. in 200 ml TB (Terrific broth) media. 16×1 L of fresh TB media in 2.8 L flasks were inoculated with 10 ml of overnight culture and grown with constant shaking at 37° C. Once cultures reached an absorbance of 1.0 at 600 nm, IPTG was added and cultures were allowed to grow for a further 12 to 18 hrs at temperatures ranging from 12-30° C. Cells were harvested by centrifugation and pellets frozen at […] until ready for lysis.
For protein Purification; frozen E. coli cell pellets were resuspended in lysis buffer and lysed using standard mechanical methods. Protein was purified via poly-Histidine tags using immobilized metal affinity purification IMAC. The Kit kinase was purified using a 3 step purification process utilizing; IMAC, size exclusion chromatography and ion exchange chromatography. The poly-Histidine tag was removed using Thrombin (Calbiochem).
For orientation: Alpha assays give light when donor and acceptor beads are brought close together.
In the case of `C[C@H]1CN(c2ncnc3[nH]c(-c4ccncc4)cc23)CCN1C(=O)Nc1ccc(OC(F)(F)F)cc1` [P-0043, (2S)-2-methyl-4-[6-(4-pyridyl)-7H-pyrrolo[2,3-d]pyrimidin-4-yl]-N-[4-(trifluoromethoxy)phenyl]piperazine-1-carboxamide], the 50% inhibitory concentration (IC50) – broadly, the concentration at which inhibition is half-maximal – is 0.0001 to 1 µM.

For the compound `C[C@H]1CN(c2ncnc3[nH]c(-c4ccncc4)cc23)CCN1C(=O)Nc1ccc(N(C)C)cc1` [P-0046, (2S)-N-(4-dimethylaminophenyl)-2-methyl-4-[6-(4-pyridyl)-7H-pyrrolo[2,3-d]pyrimidin-4-yl]piperazine-1-carboxamide], the half-inhibitory concentration (IC50) lay within 1 to 10 µM.

Turning to `CN(C)c1ccc(NC(=O)N2CCN(c3ncnc4[nH]ccc34)CC2)cc1` [P-0132, N-(4-dimethylaminophenyl)-4-(7H-pyrrolo[2,3-d]pyrimidin-4-yl)piperazine-1-carboxamide], the IC50 fell in the range of 1 to 10 µM.

As to `N#Cc1c[nH]c2ncnc(N3CCN(C(=O)NCc4ccc(F)cc4)CC3)c12` [P-0158, 4-(5-cyano-7H-pyrrolo[2,3-d]pyrimidin-4-yl)-N-[(4-fluorophenyl)methyl]piperazine-1-carboxamide], the half-maximal inhibitory concentration (IC50) is 10 to 200 µM.

In the case of `COc1ccc(NC(=O)N2CCN(c3ncnc4[nH]ccc34)CC2)cc1OC` [P-0173, N-(3,4-dimethoxyphenyl)-4-(7H-pyrrolo[2,3-d]pyrimidin-4-yl)piperazine-1-carboxamide], the half-inhibitory concentration (IC50) was 10 to 200 µM.

Turning to `O=C(Nc1ccc(F)c(F)c1)N1CCN(c2ncnc3[nH]ccc23)CC1` [P-0175, N-(3,4-difluorophenyl)-4-(7H-pyrrolo[2,3-d]pyrimidin-4-yl)piperazine-1-carboxamide], the concentration for half-maximal inhibition (IC50) is 10 to 200 µM.

For the compound `C[C@H](NC(=O)N1CCN(c2ncnc3[nH]c(-c4ccc(F)cc4)cc23)CC1)c1ccc(Cl)cc1` [P-0178, N-[(1S)-1-(4-chlorophenyl)ethyl]-4-[6-(4-fluorophenyl)-7H-pyrrolo[2,3-d]pyrimidin-4-yl]piperazine-1-carboxamide], the IC50 is 10 to 200 µM.

`O=C(NCc1ccc(C(F)(F)F)nc1)N1CCN(c2ncnc3[nH]c(-c4ccc(Cl)cc4)cc23)CC1` [P-0180, 4-[6-(4-chlorophenyl)-7H-pyrrolo[2,3-d]pyrimidin-4-yl]-N-[[6-(trifluoromethyl)-3-pyridyl]methyl]piperazine-1-carboxamide]: the IC50 lay within 10 to 200 µM.

Consider `COc1ccc(S(=O)(=O)N2CCN(c3ncnc4[nH]ccc34)CC2)c(N)c1` [P-0190, 5-methoxy-2-[4-(7H-pyrrolo[2,3-d]pyrimidin-4-yl)piperazin-1-yl]sulfonyl-aniline], for which the 50% inhibitory concentration (IC50) was 10 to 200 µM.

As for `O=C(Nc1ccccc1)c1cc2c(N3CCN(C(=O)NCc4ccc(F)cc4)CC3)ncnc2[nH]1` [P-0193, 4-[4-[(4-fluorophenyl)methylcarbamoyl]piperazin-1-yl]-N-phenyl-7H-pyrrolo[2,3-d]pyrimidine-6-carboxamide], the half-maximal inhibitory concentration (IC50) fell in the range of 10 to 200 µM.

Take `CCCC(=O)N1CCN(c2ncnc3[nH]ccc23)CC1` [P-0194, 1-[4-(7H-pyrrolo[2,3-d]pyrimidin-4-yl)piperazin-1-yl]butan-1-one]: the IC50 was in the range of 10 to 200 µM.

For the compound `O=C(C1CCCCC1)N1CCN(c2ncnc3[nH]ccc23)CC1` [P-0195, cyclohexyl-[4-(7H-pyrrolo[2,3-d]pyrimidin-4-yl)piperazin-1-yl]methanone], the IC50 lay within 10 to 200 µM.

Regarding `O=C(C1CCCC1)N1CCN(c2ncnc3[nH]ccc23)CC1` [P-0196, cyclopentyl-[4-(7H-pyrrolo[2,3-d]pyrimidin-4-yl)piperazin-1-yl]methanone], the IC50 was 10 to 200 µM.

Consider `CCc1ccc(C(=O)N2CCN(c3ncnc4[nH]ccc34)CC2)cc1` [P-0197, (4-ethylphenyl)-[4-(7H-pyrrolo[2,3-d]pyrimidin-4-yl)piperazin-1-yl]methanone], for which the IC50 lay in the range of 1 to 10 µM.

On to `O=C(c1ccccc1)N1CCN(c2ncnc3[nH]ccc23)CC1` [P-0198, phenyl-[4-(7H-pyrrolo[2,3-d]pyrimidin-4-yl)piperazin-1-yl]methanone], for which the concentration for half-maximal inhibition (IC50) fell in the range of 10 to 200 µM.

With `CCCS(=O)(=O)N1CCN(c2ncnc3[nH]ccc23)CC1` [P-0199, 4-(4-propylsulfonylpiperazin-1-yl)-7H-pyrrolo[2,3-d]pyrimidine], the concentration for half-maximal inhibition (IC50) is 10 to 200 µM.

Consider `O=S(=O)(c1ccccc1)N1CCN(c2ncnc3[nH]ccc23)CC1` [P-0200, 4-[4-(benzenesulfonyl)piperazin-1-yl]-7H-pyrrolo[2,3-d]pyrimidine], for which the IC50 was in the range of 10 to 200 µM.

On to `CCOc1ccc(NC(=O)N2CCN(c3ncnc4[nH]ccc34)CC2)cc1` [P-0201, N-(4-ethoxyphenyl)-4-(7H-pyrrolo[2,3-d]pyrimidin-4-yl)piperazine-1-carboxamide], for which the IC50 lay in the range of 1 to 10 µM.

Regarding `CCc1ccc(NC(=O)N2CCN(c3ncnc4[nH]ccc34)CC2)cc1` [P-0202, N-(4-ethylphenyl)-4-(7H-pyrrolo[2,3-d]pyrimidin-4-yl)piperazine-1-carboxamide], the IC50 is 10 to 200 µM.

Turning to `CCCNC(=O)N1CCN(c2ncnc3[nH]ccc23)CC1` [P-0203, N-propyl-4-(7H-pyrrolo[2,3-d]pyrimidin-4-yl)piperazine-1-carboxamide], the IC50 was 10 to 200 µM.

On to `O=C(NC1CCCCC1)N1CCN(c2ncnc3[nH]ccc23)CC1` [P-0204, N-cyclohexyl-4-(7H-pyrrolo[2,3-d]pyrimidin-4-yl)piperazine-1-carboxamide], for which the IC50 is 10 to 200 µM.

Turning to `O=C(Nc1ccccc1)N1CCN(c2ncnc3[nH]ccc23)CC1` [P-0205, N-phenyl-4-(7H-pyrrolo[2,3-d]pyrimidin-4-yl)piperazine-1-carboxamide], the IC50 lay in the range of 10 to 200 µM.

For the compound `Cc1ccccc1C(=O)c1c[nH]c2ncnc(N3CCN(c4cc(NC5CC5)ncn4)CC3)c12` [P-0206, [4-[4-[6-(cyclopropylamino)pyrimidin-4-yl]piperazin-1-yl]-7H-pyrrolo[2,3-d]pyrimidin-5-yl]-(o-tolyl)methanone], the IC50 is 10 to 200 µM.

For the compound `O=C(c1ccc(Cl)cc1)c1cc2c(N3CCN(C(=O)NCc4ccc(F)cc4)CC3)ncnc2[nH]1` [P-0207, 4-[6-(4-chlorobenzoyl)-7H-pyrrolo[2,3-d]pyrimidin-4-yl]-N-[(4-fluorophenyl)methyl]piperazine-1-carboxamide], the half-maximal inhibitory concentration (IC50) lay in the range of 10 to 200 µM.

For `O=C(c1cc2c(N3CCN(C(=O)NCc4ccc(F)cc4)CC3)ncnc2[nH]1)C1CC1` [P-0209, 4-[6-(cyclopropanecarbonyl)-7H-pyrrolo[2,3-d]pyrimidin-4-yl]-N-[(4-fluorophenyl)methyl]piperazine-1-carboxamide], the concentration for half-maximal inhibition (IC50) was 1 to 10 µM.

`O=C(NCc1ccc(F)cc1)N1CCN(c2ncnc3[nH]c(CC4CC4)cc23)CC1` [P-0210, 4-[6-(cyclopropylmethyl)-7H-pyrrolo[2,3-d]pyrimidin-4-yl]-N-[(4-fluorophenyl)methyl]piperazine-1-carboxamide]: the IC50 fell in the range of 10 to 200 µM.

Take `COc1cc(NC(=O)N2CCN(c3ncnc4[nH]cc(-c5ccccc5)c34)CC2)cc(OC)c1` [P-0216, N-(3,5-dimethoxyphenyl)-4-(5-phenyl-7H-pyrrolo[2,3-d]pyrimidin-4-yl)piperazine-1-carboxamide]: the IC50 lay in the range of 10 to 200 µM.

Turning to `COc1ccc(NC(=O)N2CCN(c3ncnc4[nH]c(-c5ccccc5)cc34)CC2)cc1` [P-0240, N-(4-methoxyphenyl)-4-(6-phenyl-7H-pyrrolo[2,3-d]pyrimidin-4-yl)piperazine-1-carboxamide], the half-maximal inhibitory concentration (IC50) lay within 10 to 200 µM.

Regarding `COc1ccc(NC(=O)N2CCN(c3ncnc4[nH]c(I)cc34)CC2)cc1` [P-0244, 4-(6-iodo-7H-pyrrolo[2,3-d]pyrimidin-4-yl)-N-(4-methoxyphenyl)piperazine-1-carboxamide], the half-maximal inhibitory concentration (IC50) was 1 to 10 µM.

Turning to `COc1cc2ncnc(-c3ccc(N)c(F)c3)c2cc1OC` [P-0276, 4-(6,7-dimethoxyquinazolin-4-yl)-2-fluoro-aniline], the IC50 fell in the range of 1 to 10 µM.

For the compound `COc1cc2ncnc(-c3ccc(S(=O)(=O)NC4CC4)cc3)c2cc1OC` [P-0277, N-cyclopropyl-4-(6,7-dimethoxyquinazolin-4-yl)benzenesulfonamide], the IC50 is 10 to 200 µM.
